# Experimental data as given in PubChem BioAssay AID248 (DTP/NCI, 2004).
# “And” between values parts separate entries of the source, which are not always exact repeats. Equal values may be shown once. Inconclusive results and toxic doses are left out.
# System: L1210 leukemia ip in BDF1 mice, survival T/C
# Test: NCI In Vivo Anticancer Drug Screen. Data for tumor model L1210 Leukemia (intraperitoneal) in B6D2F1 (BDF1) mice
# Conditions: endpoint: mean survival time, higher = longer survival
# Outline: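 Tumor cells were implanted, animals were treated, and survival was followed. The result divides the treated measurement by the vehicle-control measurement.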
# [1] = dose: 200.0 mg/kg/injection, schedule: Q01DX009 (ip), vehicle: gum acacia
# [2] = dose: 50.0 mg/kg/injection, schedule: Q01DX009 (ip), vehicle: Klucel (hydroxypropylcellulose) (HPC)
# [3] = dose: 100.0 mg/kg/injection, schedule: Q01DX009 (ip), vehicle: Klucel (hydroxypropylcellulose) (HPC)
# [4] = dose: 100.0 mg/kg/injection, schedule: Q04DX003 (ip), vehicle: Klucel (hydroxypropylcellulose) (HPC)
# [5] = dose: 200.0 mg/kg/injection, schedule: Q04DX003 (ip), vehicle: Klucel (hydroxypropylcellulose) (HPC)
# [6] = dose: 200.0 mg/kg/injection, schedule: Q01DX009 (ip), vehicle: Klucel (hydroxypropylcellulose) (HPC)
# [7] = dose: 400.0 mg/kg/injection, schedule: Q01DX009 (ip), vehicle: Klucel (hydroxypropylcellulose) (HPC)
# [8] = dose: 400.0 mg/kg/injection, schedule: Q04DX003 (ip), vehicle: Klucel (hydroxypropylcellulose) (HPC)
# [9] = dose: 100.0 mg/kg/injection, schedule: Q01DX001 (ip), vehicle: saline
# [10] = dose: 200.0 mg/kg/injection, schedule: Q01DX001 (ip), vehicle: saline
# [11] = dose: 400.0 mg/kg/injection, schedule: Q01DX001 (ip), vehicle: saline
# [12] = dose: 50.0 mg/kg/injection, schedule: Q01DX009 (ip), vehicle: saline
# [13] = dose: 100.0 mg/kg/injection, schedule: Q01DX009 (ip), vehicle: saline
compound,measurement,setting,value
COc1ccc([N+](=O)[O-])cc1NC(=O)c1ccc2c(c1)C(=O)OC2=O,T/C,"dose: 6.25 mg/kg/injection, schedule: Q01DX009 (ip), vehicle: gum acacia",93 % of control
same,T/C,"dose: 12.5 mg/kg/injection, schedule: Q01DX009 (ip), vehicle: gum acacia",88 % of control
same,T/C,"dose: 25.0 mg/kg/injection, schedule: Q01DX009 (ip), vehicle: gum acacia",87 % of control
same,T/C,"dose: 50.0 mg/kg/injection, schedule: Q01DX009 (ip), vehicle: gum acacia",86 % of control
same,T/C,[1],88 % of control
O=C(O)CNC(=O)CCl,T/C,[2],87 % of control
same,T/C,[3],90 % of control
same,T/C,[4],94 % of control
same,T/C,[5],89 % of control
O=C(NCc1cnccn1)c1ccc([N+](=O)[O-])cc1,T/C,"dose: 100.0 mg/kg/injection, schedule: Q01DX009 (ip), vehicle: saline with Tween-80",98 % of control
same,T/C,"dose: 200.0 mg/kg/injection, schedule: Q01DX009 (ip), vehicle: saline with Tween-80",104 % of control
same,T/C,"dose: 400.0 mg/kg/injection, schedule: Q01DX009 (ip), vehicle: saline with Tween-80",98 % of control
NNc1ncccn1,T/C,"dose: 5.0 mg/kg/injection, schedule: Q01DX001 (ip), vehicle: saline",102 % of control
same,T/C,"dose: 10.0 mg/kg/injection, schedule: Q01DX001 (ip), vehicle: saline",109 % of control
same,T/C,"dose: 20.0 mg/kg/injection, schedule: Q01DX001 (ip), vehicle: saline",113 % of control
Cc1cc(S(=O)(=O)F)ccc1O,T/C,[3],106 % of control
same,T/C,[6],103 % of control
same,T/C,[7],98 % of control
CCc1[nH]c(=S)nc(-c2ccccc2)c1-c1ccc([N+](=O)[O-])cc1O,T/C,[4],95 % of control
same,T/C,[5],100 % of control
same,T/C,[8],95 % of control
CCCCCCCCC(=O)CCC,T/C,[3],98 % of control
same,T/C,[4],98 % of control
same,T/C,[6],98 % of control
same,T/C,[5],106 % of control
same,T/C,[7],98 % of control
same,T/C,[8],91 % of control
CC(C)(C)c1ccc(OC(=O)Nc2cccc(C(F)(F)F)c2)cc1,T/C,"dose: 100.0 mg/kg/injection, schedule: Q01DX009 (ip), vehicle: gum acacia",101 % of control
same,T/C,[1],95 % of control
same,T/C,"dose: 400.0 mg/kg/injection, schedule: Q01DX009 (ip), vehicle: gum acacia",103 % of control
N#CC(C#N)=Cc1cccc2ccccc12,T/C,[2],97 % of control and 91 % of control
same,T/C,[3],95 % of control and 103 % of control
same,T/C,[4],102 % of control
same,T/C,[6],96 % of control and 105 % of control
same,T/C,[5],97 % of control
same,T/C,[8],103 % of control
Nc1ncnc(N)c1N(C=O)Cc1ccccc1,T/C,"dose: 100.0 mg/kg/injection, schedule: Q01DX001 (ip), vehicle: acetone",96 % of control
same,T/C,"dose: 200.0 mg/kg/injection, schedule: Q01DX001 (ip), vehicle: acetone",94 % of control
same,T/C,"dose: 400.0 mg/kg/injection, schedule: Q01DX001 (ip), vehicle: acetone",91 % of control
O=c1c2c(c(=O)c(=O)c1=O)Nc1ccccc1N2,T/C,[9],98 % of control
same,T/C,[10],104 % of control
same,T/C,[11],98 % of control
NC(N)=N/N=C/c1cccc(Cl)c1Cl,T/C,"dose: 7.5 mg/kg/injection, schedule: Q01DX Z (ip), vehicle: other",97 % of control
same,T/C,"dose: 15.0 mg/kg/injection, schedule: Q01DX Z (ip), vehicle: other",100 % of control
same,T/C,"dose: 30.0 mg/kg/injection, schedule: Q01DX Z (ip), vehicle: other",92 % of control
same,T/C,"dose: 60.0 mg/kg/injection, schedule: Q01DX Z (ip), vehicle: other",86 % of control
CCCCCc1cc(O)c(CCCC)c(O)c1,T/C,"dose: 6.25 mg/kg/injection, schedule: Q04DX002 (ip), vehicle: other",97 % of control
same,T/C,"dose: 12.5 mg/kg/injection, schedule: Q04DX002 (ip), vehicle: other",110 % of control
same,T/C,"dose: 25.0 mg/kg/injection, schedule: Q04DX002 (ip), vehicle: other",93 % of control
same,T/C,"dose: 50.0 mg/kg/injection, schedule: Q04DX002 (ip), vehicle: other",93 % of control
CCN=C(Nc1ccc(C(=NC)NCC)cc1)c1ccc(C(=NCC)Nc2ccc(C(=NC)NCC)cc2)cc1,T/C,"dose: 0.5 mg/kg/injection, schedule: Q01DX Z (ip), vehicle: saline",97 % of control
same,T/C,"dose: 0.8 mg/kg/injection, schedule: Q01DX Z (ip), vehicle: saline",97 % of control
same,T/C,"dose: 1.2 mg/kg/injection, schedule: Q01DX Z (ip), vehicle: saline",97 % of control
same,T/C,"dose: 1.77 mg/kg/injection, schedule: Q01DX Z (ip), vehicle: saline",97 % of control and 89 % of control
same,T/C,"dose: 2.66 mg/kg/injection, schedule: Q01DX Z (ip), vehicle: saline",93 % of control
same,T/C,"dose: 4.0 mg/kg/injection, schedule: Q01DX Z (ip), vehicle: saline",96 % of control
COC(CBr)c1ccccc1 (stereo not given),T/C,"dose: 12.5 mg/kg/injection, schedule: Q04DX003 (ip), vehicle: Klucel (hydroxypropylcellulose) (HPC)",98 % of control
same,T/C,"dose: 25.0 mg/kg/injection, schedule: Q01DX009 (ip), vehicle: saline",108 % of control
same,T/C,"dose: 25.0 mg/kg/injection, schedule: Q04DX003 (ip), vehicle: Klucel (hydroxypropylcellulose) (HPC)",101 % of control
same,T/C,[12],98 % of control
same,T/C,"dose: 50.0 mg/kg/injection, schedule: Q04DX003 (ip), vehicle: Klucel (hydroxypropylcellulose) (HPC)",96 % of control
same,T/C,[13],95 % of control
CC(=O)Oc1c(C2CCCCC2)cc([N+](=O)[O-])cc1[N+](=O)[O-],T/C,[4],94 % of control
same,T/C,[5],101 % of control
COCC1OC(OC2OCC3OC4(OCC(O)(C(C)OC)C5OCOC54)OC3C2OC)C(OC)C(O)C1OC1OC(C)C(OC)C(OC2OC(C)C3OC4(CC(O)C(OC5CC(OC6CC(C)([N+](=O)[O-])C(OC)C(C)O6)C(OC(=O)c6c(C)c(Cl)c(O)c(Cl)c6OC)C(C)O5)C(C)O4)OC3(C)C2O)C1O (stereo not given),T/C,[12],106 % of control
same,T/C,[13],106 % of control
same,T/C,"dose: 200.0 mg/kg/injection, schedule: Q01DX009 (ip), vehicle: saline",96 % of control
COc1ncnc2c1c(C#N)cn2C1OC(CO)C(O)C1O (stereo not given),T/C,"dose: 6.25 mg/kg/injection, schedule: Q01DX009 (ip), vehicle: saline",124 % of control
same,T/C,[12],119 % of control
same,T/C,[13],169 % of control
same,T/C,"dose: 200.0 mg/kg/injection, schedule: Q01DX005 (ip), vehicle: saline",93 % of control
CCCCCCNC(C)(C)[P+](=O)O,T/C,"dose: 100.0 mg/kg/injection, schedule: Q04DX003 (ip), vehicle: saline",105 % of control
same,T/C,"dose: 200.0 mg/kg/injection, schedule: Q04DX003 (ip), vehicle: saline",108 % of control
same,T/C,"dose: 400.0 mg/kg/injection, schedule: Q04DX003 (ip), vehicle: saline",102 % of control
CC1(C)C/C(=C\c2cccc(Cl)c2)C(=O)c2ccccc21,T/C,[4],108 % of control
same,T/C,[5],106 % of control
same,T/C,[8],110 % of control
CCCCCN(C)N=Nc1ccccc1C(N)=O,T/C,"dose: 100.0 mg/kg/injection, schedule: Q01DX001 (ip), vehicle: other",106 % of control
same,T/C,[3],114 % of control
same,T/C,[4],109 % of control
same,T/C,"dose: 200.0 mg/kg/injection, schedule: Q01DX001 (ip), vehicle: other",112 % of control
same,T/C,[6],115 % of control
same,T/C,[5],101 % of control
same,T/C,"dose: 400.0 mg/kg/injection, schedule: Q01DX001 (ip), vehicle: other",115 % of control
same,T/C,[8],112 % of control
COC(=O)c1ccccc1N=NNc1ccc(C(F)(F)F)c([N+](=O)[O-])c1,T/C,"dose: 100.0 mg/kg/injection, schedule: Q04DX003 (ip), vehicle: saline with Tween-80",98 % of control
same,T/C,"dose: 200.0 mg/kg/injection, schedule: Q04DX003 (ip), vehicle: saline with Tween-80",103 % of control
same,T/C,"dose: 400.0 mg/kg/injection, schedule: Q04DX003 (ip), vehicle: saline with Tween-80",88 % of control
COc1ccc([N+](=O)[O-])cc1NC(=O)Nc1ccc(CCO)cc1,T/C,[2],92 % of control
same,T/C,[3],105 % of control
same,T/C,[6],97 % of control
CCOC(=O)/C=C(/C)OC(C)=O,T/C,[3],100 % of control
same,T/C,[4],101 % of control
same,T/C,[6],98 % of control
same,T/C,[5],95 % of control
same,T/C,[7],100 % of control
same,T/C,[8],95 % of control
O=c1cc(-c2c(O)cc(O)cc2O)oc2cc(O)cc(O)c12,T/C,"dose: 100.0 mg/kg/injection, schedule: Q01DX001 (ip), vehicle: carboxymethylcellulose (CMC)",94 % of control
same,T/C,"dose: 200.0 mg/kg/injection, schedule: Q01DX001 (ip), vehicle: carboxymethylcellulose (CMC)",94 % of control
same,T/C,"dose: 400.0 mg/kg/injection, schedule: Q01DX001 (ip), vehicle: carboxymethylcellulose (CMC)",92 % of control
CN(C)CCNc1cc([N+](=O)[O-])ccc1[N+](=O)[O-],T/C,[9],105 % of control
O=Nc1ccc(/C=C/C(=O)O)cc1,T/C,"dose: 50.0 mg/kg/injection, schedule: Q01DX001 (ip), vehicle: saline",102 % of control
same,T/C,[9],105 % of control
same,T/C,[10],100 % of control
same,T/C,[11],113 % of control
